Data: patent publication US8513271B2, “Pyrimidine compounds as delta opioid receptor modulators” (Janssen Pharmaceutica, NV, priority 2009, dated 2013)
Like-named read-outs stand apart in the source and are kept apart here.

Experiments:
delta opioid receptor [1] = target: T1, delta opioid receptor (Mus musculus, UniProt P32300); experiment: NG108-15, 24-well delta opioid receptor binding assay
T1 construct: NG108-15 cell membranes were purchased from Applied Cell Sciences (Rockville, Md.); host or cells: NG108-15 cell membranes

delta opioid receptor [2] = target: T1, delta opioid receptor; experiment: [35S]GTPγS binding assay in NG108-15 cell membranes (delta opioid functional assay), 200 nM screen; assay type: biochemical; details: for GTPγS δ-RelEfficacy @200 nM: 200 nM test compound, relative to calculated max of SNC80 dose response curve; for GTPγS δ-RelEfficacy @200 nM / EC50 / GTPγS δ-opioid receptor Rel Efficacy: NG108-15 cell membranes; for GTPγS δ-RelEfficacy @200 nM / EC50: averages if tested more than once; for GTPγS δ-opioid receptor Rel Efficacy: relative efficacy from dose response
delta opioid receptor [3] = target: T2, delta opioid receptor (Rattus norvegicus, UniProt P33533); experiment: Rat brain delta opioid receptor binding assay; details: rat forebrain, [3H]naltrindole ligand; read-out: δ-binding (Naltrindole ligand) Ki
T2 construct: the forebrains were homogenized in Tris buffer in a Teflon®-glass homogenizer; from tissue; host or cells: forebrain of male Wistar rats, particulate (membrane) preparation

mu opioid receptor = target: T3, mu opioid receptor (Rattus norvegicus, UniProt P33535); experiment: Rat brain mu opioid receptor binding assay; details: rat forebrain, [3H]DAMGO ligand
T3 construct: the forebrains were homogenized in Tris buffer in a Teflon®-glass homogenizer; from tissue; host or cells: forebrain of male Wistar rats, particulate (membrane) preparation

[4] = [3H]Naltrindole ligand, NG108-15 cell membranes, read-out: δ-binding NG108 cell membrane Ki
[5] = read-out: GTPγS δ-opioid receptor EC50
[6] = GTPγS δ-opioid receptor EC50 (μM)

T1 sequence (P32300 whole entry): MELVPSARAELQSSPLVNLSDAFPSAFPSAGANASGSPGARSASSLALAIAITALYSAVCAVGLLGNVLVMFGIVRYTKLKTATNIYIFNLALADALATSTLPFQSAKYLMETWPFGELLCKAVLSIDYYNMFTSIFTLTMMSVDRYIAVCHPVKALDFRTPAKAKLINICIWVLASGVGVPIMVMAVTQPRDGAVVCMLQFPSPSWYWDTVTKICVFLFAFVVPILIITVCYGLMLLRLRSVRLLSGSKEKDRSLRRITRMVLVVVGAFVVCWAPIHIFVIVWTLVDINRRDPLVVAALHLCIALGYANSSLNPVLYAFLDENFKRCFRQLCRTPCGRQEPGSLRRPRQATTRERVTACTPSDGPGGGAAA
T3 sequence (P33535 whole entry): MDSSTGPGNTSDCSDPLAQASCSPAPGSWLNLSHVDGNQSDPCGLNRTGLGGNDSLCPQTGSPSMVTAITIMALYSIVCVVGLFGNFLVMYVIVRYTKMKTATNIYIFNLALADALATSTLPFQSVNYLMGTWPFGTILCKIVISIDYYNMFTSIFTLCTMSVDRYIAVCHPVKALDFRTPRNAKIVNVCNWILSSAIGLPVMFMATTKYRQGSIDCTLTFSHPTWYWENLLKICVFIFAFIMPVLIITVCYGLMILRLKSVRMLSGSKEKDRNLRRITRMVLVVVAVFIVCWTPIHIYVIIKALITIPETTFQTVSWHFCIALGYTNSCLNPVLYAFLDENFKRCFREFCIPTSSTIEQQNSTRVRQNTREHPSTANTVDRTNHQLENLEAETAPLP
T2 sequence (P33533 whole entry): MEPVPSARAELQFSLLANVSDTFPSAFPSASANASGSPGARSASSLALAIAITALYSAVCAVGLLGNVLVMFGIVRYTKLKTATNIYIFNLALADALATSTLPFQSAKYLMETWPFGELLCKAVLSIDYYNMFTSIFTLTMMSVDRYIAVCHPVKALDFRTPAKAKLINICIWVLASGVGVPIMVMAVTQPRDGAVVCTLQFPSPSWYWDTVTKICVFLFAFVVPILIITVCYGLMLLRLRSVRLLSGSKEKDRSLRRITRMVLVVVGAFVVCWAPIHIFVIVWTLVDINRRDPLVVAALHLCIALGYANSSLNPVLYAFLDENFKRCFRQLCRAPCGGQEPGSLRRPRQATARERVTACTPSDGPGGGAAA

SMILES | Ki (delta opioid receptor [1]; [4]) [nM] | GTPγS δ-RelEfficacy @200 nM (delta opioid receptor [2]) | EC50 (delta opioid receptor [2]; [5]) [µM] | GTPγS δ-opioid receptor Rel Efficacy (delta opioid receptor [2]) | Ki (delta opioid receptor [1]) [nM] | other results
N#Cc1cncc(-c2ncc(NC[C@@H]3CCCN3)c(Oc3ccc(Cl)cc3)n2)c1 [Cpd 129] | 0.3 | 0.633 | 0.0551 | 0.976 | – | –
COc1ccc(Oc2nc(-c3cncnc3)ncc2NCC2COCCN2)cc1 (racemic) [Cpd 278] | 1.64 | 0.263 | – | – | – | Ki (delta opioid receptor [3]): 999 nM
CC(C)Oc1ccc(Oc2nc(-c3cncc(C#N)c3)ncc2NC[C@@H]2CCCN2)cc1 [Cpd 139] | 2 | – | 2.27 | 1.118 | – | –
COCc1ccc(Oc2nc(-c3cccnc3)ncc2NC[C@@H]2CCCN2)cc1 [Cpd 155] | – | 0.170 | – | – | 5 | –
CSc1ccc(Oc2nc(-c3cncnc3)ncc2NC[C@@H]2CCCN2)cc1 [Cpd 151] | 1 | 0.704 | 0.119 | 1.121 | – | –
COc1ccc(Oc2nc(-c3cncc(C#N)c3)ncc2NC[C@H]2C[C@H](N)C2)cc1 [Cpd 301] | – | – | – | 1.085 | 0.5 | Ki (mu opioid receptor; μ-binding Ki): 658 nM; EC50 (delta opioid receptor [2]; [6]): 0.087 µM
CCN(CC)C(=O)c1cccc(Oc2nc(-c3cccnc3)ncc2NC[C@@H]2CCCN2)c1 [Cpd 157] | 40 | 0.213 | – | – | – | –
FC(F)(F)COc1ccc(Oc2nc(-c3cncnc3)ncc2NC[C@@H]2CCCN2)cc1 [Cpd 123] | 0.4 | 0.653 | 0.057 | 1.124 | – | –
COc1ccc(Oc2nc(-c3cncnc3)ncc2NC2CC(N)C2)cc1 (stereo not drawn) [Cpd 304] | – | 0.228 | – | – | 2 | –
COc1ccc(Oc2nc(-c3cncc(C#N)c3)ncc2NC[C@@H](N)CC(C)C)cc1 [Cpd 294] | 6 | – | > 10 | – | – | –
CC(C)Oc1ccc(Oc2nc(-c3cccnc3)ncc2NC[C@@H]2CCCN2)cc1 [Cpd 141] | 3 | 0.149 | – | – | – | –
COc1ccc(-c2ncc(NC[C@@H]3CCCN3)c(Oc3ccc(O)cc3)n2)cn1 [Cpd 59] | 1.54 | – | 0.433 | 1.0063 | – | Ki (delta opioid receptor [3]): 0.954 nM; Ki (mu opioid receptor; read-out: μ-binding Ki): 1610 nM; inhibition at 10 µM (delta opioid receptor [2]; read-out: GTPγS δ-opioid receptor % Inh @10 μM): 1.48%
Cc1ccc(Oc2nc(-c3cncc(C#N)c3)ncc2NC[C@@H]2CCCN2)cc1 [Cpd 147] | – | – | – | 1.077 | 0.4 | Ki (mu opioid receptor; μ-binding Ki): 438 nM; EC50 (delta opioid receptor [2]; [6]): 0.051 µM
OCc1ccc(Oc2nc(-c3cncnc3)ncc2NC[C@@H]2CCCN2)cc1 [Cpd 144] | – | 0.191 | – | – | 7 | –
N#Cc1cccc(Oc2nc(-c3cccnc3)ncc2NC[C@@H]2CCCN2)c1 [Cpd 135, 3-{2-Pyridin-3-yl-5-[(pyrrolidin-2-(S)-ylmethyl)-amino]-pyrimidin-4-yloxy}-benzonitrile] | – | – | 1.38 | – | 2 | –
O=C(c1cccc(Oc2nc(-c3cccnc3)ncc2NC[C@@H]2CCCN2)c1)N1CCCCC1 [Cpd 167] | 21 | 0.328 | – | – | – | –
N#Cc1ccc(Oc2nc(-c3cccnc3)ncc2NC[C@@H]2CCCN2)cc1 [Cpd 136] | 7 | – | 9 | 0.789 | – | –
COCc1ccc(Oc2nc(-c3cncc(C#N)c3)ncc2NC[C@@H]2CCCN2)cc1 [Cpd 153] | 1 | 0.454 | 0.193 | 1.120 | – | –
N#Cc1cncc(-c2ncc(NC[C@@H]3CCCN3)c(Oc3ccc(CO)cc3)n2)c1 [Cpd 143] | 1 | – | 0.69 | 1.066 | – | –
COc1ccc(Oc2nc(-c3cc(F)cc(C#N)c3)ncc2NC[C@@H]2CCCN2)cc1 [Cpd 142] | 0.2 | 0.931 | 0.029 | 1.006 | – | –

SMILES | Ki (delta opioid receptor [1]; [4]) [nM] | GTPγS δ-RelEfficacy @200 nM (delta opioid receptor [2]) | EC50 (delta opioid receptor [2]; [5]) [µM] | GTPγS δ-opioid receptor Rel Efficacy (delta opioid receptor [2]) | Ki (delta opioid receptor [1]) [nM] | other results
Cc1ccc(Oc2nc(-c3cncnc3)ncc2NC[C@@H]2CCCN2)cc1 [Cpd 148] | 1 | 0.411 | 0.158 | 1.052 | – | –
Clc1ccc(Oc2nc(-c3cncnc3)ncc2NC[C@@H]2CCCN2)cc1 [Cpd 130] | 2 | 0.245 | – | – | – | –
N#Cc1cncc(-c2ncc(NC[C@@H]3CCCN3)c(Oc3ccc(F)cc3)n2)c1 [Cpd 146] | 0.4 | – | 0.387 | 1.197 | – | –
CSc1ccc(Oc2nc(-c3cccnc3)ncc2NC[C@@H]2CCCN2)cc1 [Cpd 152] | 0.4 | 0.607 | 0.07 | 1.083 | – | –
COc1ccc(Oc2nc(-c3cncnc3)ncc2NC[C@@H]2CCCN2)cc1F [Cpd 133] | 0.4 | 0.755 | 0.028 | 1.041 | – | –
O=C(c1cccc(Oc2nc(-c3cccnc3)ncc2NC[C@@H]2CCCN2)c1)N1CCCC1 [Cpd 166] | – | 0.169 | – | – | 27 | –
O=C(Nc1ccc(Oc2nc(-c3cccnc3)ncc2NC[C@@H]2CCCN2)cc1)C1CC1 [Cpd 138, Cyclopropanecarboxylic acid (4-{2-pyridin-3-yl-5-[(pyrrolidin-2-(S)-ylmethyl)-amino]-pyrimidin-4-yloxy}-phenyl)-amide] | – | – | 1.34 | – | 4 | –
COc1ccc(Oc2nc(-c3cncnc3)ncc2NC[C@H]2C[C@H](N)C2)cc1 [Cpd 302] | 1 | 0.393 | – | – | – | –
CC(C)Oc1ccc(Oc2nc(-c3cncnc3)ncc2NC[C@@H]2CCCN2)cc1 [Cpd 140] | 8 | 0.137 | – | – | – | –
CSc1ccc(Oc2nc(-c3cncc(C#N)c3)ncc2NC[C@@H]2CCCN2)cc1 [Cpd 150] | – | 0.801 | – | 1.093 | 0.3 | EC50 (delta opioid receptor [2]; [6]): 0.033 µM
Oc1ccc(Oc2nc(-c3cncnc3)ncc2NC[C@@H]2CCCN2)cc1 [Cpd 156, 4-{5-[(Pyrrolidin-2-(S)-ylmethyl)-amino]-[2,5]bipyrimidinyl-4-yloxy}-phenol] | – | – | 0.177 | – | 1 | –
COc1ccc(Oc2nc(-c3cncc(F)c3)ncc2NC[C@H]2COCCN2)cc1 [Cpd 281] | 1 | 0.221 | – | – | – | –
COCc1ccc(Oc2nc(-c3cncnc3)ncc2NC[C@@H]2CCCN2)cc1 [Cpd 154] | – | 0.164 | – | – | 9 | –
Fc1cncc(-c2ncc(NC[C@@H]3CCCN3)c(Oc3ccc(Cl)cc3)n2)c1 [Cpd 128] | 0.4 | – | 0.453 | 1.144 | – | –
O=C(c1cccc(Oc2nc(-c3cccnc3)ncc2NC[C@@H]2CCCN2)c1)N1CCOCC1 [Cpd 168] | 50 | 0.300 | – | – | – | –
OCc1ccc(Oc2nc(-c3cccnc3)ncc2NC[C@@H]2CCCN2)cc1 [Cpd 145] | 5 | – | 4.02 | 1.180 | – | –
Fc1cncc(-c2ncc(NC[C@@H]3CCCN3)c(Oc3ccc(OCC(F)(F)F)cc3)n2)c1 [Cpd 124] | – | – | – | – | 0.3 | Ki (delta opioid receptor [3]): 126 nM
COc1ccc(Oc2nc(-c3cncc(F)c3)ncc2NC[C@@H]2CCCN2)cc1F [Cpd 131] | 0.2 | 0.819 | 0.076 | 1.063 | – | –
N#Cc1ccc(Oc2nc(-c3cccnc3)ncc2NC[C@@H]2CCCN2)cc1F [Cpd 137] | 9 | – | > 10 | – | – | –
Cc1ccc(Oc2nc(-c3cccnc3)ncc2NC[C@@H]2CCCN2)cc1 [Cpd 149] | 1 | 0.403 | 0.236 | 1.026 | – | –
